Tests used:
[1] = molecular target: MAP/microtubule affinity-regulating kinase 4 (Homo sapiens) (UniProt Q96L34); test: Inhibition of wild-type human partial length MARK4 (K29 to G340 residues) expressed in bacterial expression system assessed as residual activity at 1 uM by Kinomescan method relative to control
[2] = molecular target: Cyclin-dependent kinase 1/cyclin B1 (Homo sapiens) (UniProt P06493+P14635); test: Inhibition of wild-type human full length CDK1 (M1 to M297 residues)/Cyclin B expressed in mammalian expression system assessed as residual activity at 1 uM by Kinomescan method relative to control
[3] = molecular target: Tyrosine-protein kinase ZAP-70 (Homo sapiens) (UniProt P43403); test: Inhibition of wild-type human partial length ZAP70 (D20 to G299 residues) expressed in mammalian expression system assessed as residual activity at 1 uM by Kinomescan method relative to control
[4] = molecular target: Serine/threonine-protein kinase Nek1 (Homo sapiens) (UniProt Q96PY6); test: Inhibition of wild-type human partial length NEK1 (M1 to K278 residues) expressed in bacterial expression system assessed as residual activity at 1 uM by Kinomescan method relative to control
[5] = molecular target: cAMP-dependent protein kinase catalytic subunit beta (Homo sapiens) (UniProt P22694); test: Inhibition of wild-type human full length PKAC-beta (M1 to F351 residues) expressed in bacterial expression system assessed as residual activity at 1 uM by Kinomescan method relative to control
[6] = molecular target: Ephrin type-A receptor 5 (Homo sapiens) (UniProt P54756); test: Inhibition of wild-type human partial length EPHA5 (T627 to V930 residues) expressed in bacterial expression system assessed as residual activity at 1 uM by Kinomescan method relative to control
[7] = molecular target: Mitogen-activated protein kinase 7 (Homo sapiens) (UniProt Q13164); test: Inhibition of wild-type human partial length ERK5 (M1 to A409 residues) expressed in bacterial expression system assessed as residual activity at 1 uM by Kinomescan method relative to control
[8] = molecular target: Protein kinase C alpha type (Homo sapiens) (UniProt P17252); test: Inhibition of PKCalpha (unknown origin) assessed as residual activity at 1 uM by Kinomescan method relative to control
[9] = molecular target: Serine/threonine-protein kinase PAK 1 (Homo sapiens) (UniProt Q13153); test: Inhibition of wild-type human partial length PAK1 (S149 to H545 residues) expressed in bacterial expression system assessed as residual activity at 1 uM by Kinomescan method relative to control
[10] = molecular target: Receptor-interacting serine/threonine-protein kinase 2 (Homo sapiens) (UniProt O43353); test: Inhibition of wild-type human partial length RIPK2 (M1 to K310 residues) expressed in bacterial expression system assessed as residual activity at 1 uM by Kinomescan method relative to control
[11] = molecular target: Calcium/calmodulin-dependent protein kinase type II subunit alpha (Homo sapiens) (UniProt Q9UQM7); test: Inhibition of wild-type human partial length CAMK2A (M1 to K328 residues) expressed in bacterial expression system assessed as residual activity at 1 uM by Kinomescan method relative to control
[12] = molecular target: Vascular endothelial growth factor receptor 1 (Homo sapiens) (UniProt P17948); test: Inhibition of wild-type human partial length FLT1 (R781 to F1239 residues) expressed in bacterial expression system assessed as residual activity at 1 uM by Kinomescan method relative to control
[13] = molecular target: Mitogen-activated protein kinase kinase kinase 2 (Homo sapiens) (UniProt Q9Y2U5); test: Inhibition of MEKK2 (unknown origin) assessed as residual activity at 1 uM by Kinomescan method relative to control
[14] = molecular target: Tyrosine-protein kinase JAK3 (Homo sapiens) (UniProt P52333); test: Inhibition of wild type human partial length JAK3 (I781 to S1124 residues) expressed in mammalian expression system assessed as residual activity at 1 uM by Kinomescan method relative to control
[15] = In vivo inhibition of LRRK2 in C57BL6 mouse assessed as reduction in Ser935 phosphorylation in kidney at 45 mg/kg, po after 1 hr by Western blot analysis; assay type: functional; parameters: scale not given: the % may be the effect or the level left
[16] = molecular target: Activated CDC42 kinase 1 (Homo sapiens) (UniProt Q07912); test: Inhibition of ACK1 (unknown origin) assessed as residual activity at 1 uM relative to control
[17] = molecular target: Ribosomal protein S6 kinase alpha-5 (Homo sapiens) (UniProt O75582); test: Inhibition of wild-type human partial length N-terminal RPS6KA5 kinase domain 1 expressed in bacterial expression system assessed as residual activity at 1 uM by Kinomescan method relative to control
[18] = molecular target: Cyclin-dependent kinase 4/cyclin D1 (Homo sapiens) (UniProt P11802+P24385); test: Inhibition of wild-type human full length CDK4/cyclinD1 (M1 to E303 residues) expressed in mammalian expression system assessed as residual activity at 1 uM by Kinomescan method relative to control
[19] = molecular target: Serine/threonine-protein kinase Nek9 (Homo sapiens) (UniProt Q8TD19); test: Inhibition of wild-type human partial length NEK9 (P32 to R328 residues) expressed in bacterial expression system assessed as residual activity at 1 uM by Kinomescan method relative to control
[20] = molecular target: TGF-beta receptor type-2 (Homo sapiens) (UniProt P37173); test: Inhibition of wild-type human partial length TGFBR2 (I218 to K567 residues) expressed in bacterial expression system assessed as residual activity at 1 uM by Kinomescan method relative to control
[21] = molecular target: Casein kinase I isoform gamma-1 (Homo sapiens) (UniProt Q9HCP0); test: Inhibition of CK1g1 (unknown origin) assessed as residual activity at 1 uM by Kinomescan method relative to control
[22] = molecular target: Homeodomain-interacting protein kinase 4 (Homo sapiens) (UniProt Q8NE63); test: Inhibition of wild-type human partial length HIPK4 (M1 to V384 residues) expressed in bacterial expression system assessed as residual activity at 1 uM by Kinomescan method relative to control
[23] = molecular target: Tyrosine-protein kinase Yes (Homo sapiens) (UniProt P07947); test: Inhibition of wild-type human partial length YES (T257 to L543 residues) expressed in bacterial expression system assessed as residual activity at 1 uM by Kinomescan method relative to control
[24] = molecular target: Serine/threonine-protein kinase Nek6 (Homo sapiens) (UniProt Q9HC98); test: Inhibition of wild-type human full length NEK6 (M8 to T313 residues) expressed in bacterial expression system assessed as residual activity at 1 uM by Kinomescan method relative to control
[25] = molecular target: RAC-beta serine/threonine-protein kinase (Homo sapiens) (UniProt P31751); test: Inhibition of wild-type human partial length AKT2 expressed in bacterial expression system assessed as residual activity at 1 uM by Kinomescan method relative to control
[26] = molecular target: Ribosomal protein S6 kinase alpha-2 (Homo sapiens) (UniProt Q15349); test: Inhibition of human RSK3 expressed in bacterial expression system assessed as residual activity at 1 uM by Kinomescan method relative to control
[27] = molecular target: Cyclin-Y/Cyclin-dependent kinase 16 (Homo sapiens) (UniProt Q00536+Q8ND76); test: Inhibition of CDK16/Cyclin Y (unknown origin) assessed as residual activity at 1 uM by Kinomescan method relative to control; assay type: protein-complex assay

In the case of `CCOc1nc(Nc2ccc(C(=O)N3CCOCC3)cc2OC)nc2[nH]ccc12`, the Activity [1] is reported as 101%, the Activity [2] is reported as 92.2% and the Activity [3] is reported as 124%. The Activity [4] was 90.8%, the Activity [5] was 93.3% and the Activity [6] was 103%. For the same molecule, the Activity [7] was 99.1%, the Activity [8] was 95.5% and the Activity [9] was 95.3%. For the same molecule, the Activity [10] was 91.7%, the Activity [11] was 214% and the Activity [12] was 97.5%. It also gave an Activity [13] of 99.3%, an Activity [14] of 109% and an Activity [15] of 80%. The Activity [16] was 27.9%, the Activity [17] was 97.6% and the Activity [18] was 97.4%. The Activity [19] was 100%, the Activity [20] was 104% and the Activity [21] was 95%. It also gave an Activity [22] of 101%, an Activity [23] of 94.4% and an Activity [24] of 96.8%. For the same molecule, the Activity [25] was 97.1%, the Activity [26] was 80.3% and the Activity [27] was 105%.

Reference: ChEMBL document CHEMBL4715821, “Discovery of 4-ethoxy-7H-pyrrolo[2,3-d]pyrimidin-2-amines as potent, selective and orally bioavailable LRRK2 inhibitors” (Bioorg Med Chem Lett, 2018)
